Assay results published in patent US8633245B2, “PAI-1 inhibitor” (Institute of Medicinal Molecular Design, Inc., priority 2008, dated 2014).

Molecular target: T1, recombinant human PAI-1 (Homo sapiens, UniProt P05121)
T1 construct: purchased Molecular Innovations, Inc
Assay: Test Example 1: human PAI-1 inhibitory activity (tPA fluorogenic substrate, pH 7.5 Tris buffer)
Assay type: biochemical
Conditions: Tris buffer
Procedure: 50 mM Tris, 150 mM NaCl, 10 μg/ml BSA, 0.01% Tween80 (SIGMA-ALDRICH Corporation)

T1 sequence (P05121 24-402): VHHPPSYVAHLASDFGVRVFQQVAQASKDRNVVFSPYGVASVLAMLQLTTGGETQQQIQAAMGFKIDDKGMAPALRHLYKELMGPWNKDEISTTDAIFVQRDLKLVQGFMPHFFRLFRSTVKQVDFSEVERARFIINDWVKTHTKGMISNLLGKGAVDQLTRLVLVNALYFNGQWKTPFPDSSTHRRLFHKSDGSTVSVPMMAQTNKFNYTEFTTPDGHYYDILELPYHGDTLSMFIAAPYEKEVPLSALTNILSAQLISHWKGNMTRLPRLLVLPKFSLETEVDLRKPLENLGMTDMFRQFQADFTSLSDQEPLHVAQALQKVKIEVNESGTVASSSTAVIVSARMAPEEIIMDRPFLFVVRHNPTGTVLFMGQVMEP

Row | Compound | Inhibition Rate of PAI-1 Activity (%) (Compound Concentration 5 μM) | Inhibition Rate of PAI-1 Activity (%) (Compound Concentration 10 μM) | Inhibition Rate of PAI-1 Activity (%) (Compound Concentration 25 μM)
1 | CC(C)(C)c1ccc(CN(C(=O)C(=O)O)c2ccc(-c3ccc(C(C)(C)C)cc3)cc2)cc1 [Compound 163] | 37% | 84% | >99%
2 | O=C(O)C(=O)N(CCCCc1ccccc1)c1ccc(N2CCCCC2=O)c(-c2ccc(OC(F)(F)F)cc2)c1 [Compound 250] | 83% | 78% | 
3 | CC(C)(C)c1ccc(COc2ccc(-c3ccc(F)cc3)cc2/C=C/C(=O)O)cc1 [Compound 33] | 23% | 53% | 96%
4 | Cc1cc(-c2ccc(OC(F)(F)F)cc2)cc(N(Cc2ccc(C(C)(C)C)cc2)C(=O)C(=O)O)c1 [Compound 178] | 56% | 88% | 88%
5 | Cc1ccc(CN(C(=O)C(=O)O)c2ccc(-c3ccc(OC(F)(F)F)cc3)cc2)cc1 [Compound 143] |  | 1% | 22%
6 | O=C(O)CCc1cc(OCc2ccc(OC(F)(F)F)cc2)ccc1OCc1ccc(OC(F)(F)F)cc1 [Compound 404] | 14% | 31% | 84%
7 | COc1ccccc1-c1ccc(OCc2ccc(C(C)(C)C)cc2)c(CCC(=O)O)c1 [Compound 56] | 22% | 47% | 91%
8 | COc1ccccc1-c1ccc(OCc2ccc(C(C)(C)C)cc2)c(/C=C/C(=O)O)c1 [Compound 55] | 21% | 46% | 95%
9 | CCCOc1ccc(-c2ccc(OC(F)(F)F)cc2)cc1N(CCCCc1ccccc1)C(=O)C(=O)O [Compound 236] | 61% | 86% | 95%
10 | Cc1ccc(-c2cccc([N+](=O)[O-])c2)cc1N(Cc1ccc(C(C)(C)C)cc1)C(=O)C(=O)O [Compound 138] |  | 4% | 61%
11 | CSc1ccc(-c2ccc(N(Cc3ccc(C(C)(C)C)cc3)C(=O)C(=O)O)cc2)cc1 [Compound 134] |  | 14% | 75%
12 | CC(C)Oc1ccc(N(CCCCc2ccccc2)C(=O)C(=O)O)cc1-c1ccc(OC(F)(F)F)cc1 [Compound 248] | 60% | 89% | 96%
13 | CC(C)(C)c1ccc(CN(C(=O)C(=O)O)c2ccc(N3CCCCC3=O)c(-c3ccc(OC(F)(F)F)cc3)c2)cc1 [Compound 219] | 33% | 58% | 86%
14 | CC(C)(C)c1ccc(CN(C(=O)C(=O)O)c2cc(-c3ccccc3)cc(C(F)(F)F)c2)cc1 [Compound 140] | 6% | 31% | 77%
15 | CC(C)(C)c1ccc(CN(C(=O)C(=O)O)c2ccc(OCc3ccc(OC(F)(F)F)cc3)cc2)cc1 [Compound 616] | 49% | 83% | 96%
16 | CC(C)(C)c1ccc(-c2ccc(N(Cc3ccccc3OC(F)(F)F)C(=O)C(=O)O)cc2)cc1 [Compound 202] | 70% | 94% | 98%
17 | CCCCc1ccc(CN(C(=O)C(=O)O)c2ccc(-c3ccc(OC(F)(F)F)cc3)cc2)cc1 [Compound 167] | 37% | 75% | 87%
18 | CCCOc1ccc(-c2ccc(OC(F)(F)F)cc2)cc1N(CCCc1ccccc1)C(=O)C(=O)O [Compound 234] | 59% | 83% | 96%
19 | CCCCc1ccc(-c2ccc(N(Cc3ccc(C(C)(C)C)cc3)C(=O)C(=O)O)cc2)cc1 [Compound 164] | 40% | 79% | 96%
20 | COc1ccc(-c2ccc(OC(F)(F)F)cc2)cc1N(Cc1ccc(C(C)(C)C)cc1)C(=O)C(=O)O [Compound 182] | 56% | 85% | 89%
21 | CC(C)(C)c1ccc(CN(C(=O)C(=O)O)c2ccc(-c3ccc(C(F)(F)F)cc3)cc2)cc1 [Compound 145] | 7% | 35% | 74%
22 | CC(C)(C)c1ccc(Oc2cc(-c3ccc(OC(F)(F)F)cc3)ccc2OC(F)(F)C(=O)O)cc1 [Compound 120] | 59% | 87% | 98%

Row | Compound | Inhibition Rate of PAI-1 Activity (%) (Compound Concentration 5 μM) | Inhibition Rate of PAI-1 Activity (%) (Compound Concentration 10 μM) | Inhibition Rate of PAI-1 Activity (%) (Compound Concentration 25 μM)
23 | CC(C)(C)c1ccc(-c2ccc(OCc3ccccc3OC(F)(F)F)c(CCC(=O)O)c2)cc1 [Compound 67] | 37% | 70% | 94%
24 | CC(C)c1ccc(Oc2ccc(/C=C/C(=O)O)c(Oc3ccc(C(C)C)cc3)c2)cc1 [Compound 72] | 32% | 72% | 98%
25 | Cc1cc(-c2ccc(OC(F)(F)F)cc2)ccc1N(Cc1ccc(C(C)(C)C)cc1)C(=O)C(=O)O [Compound 146] | 33% | 73% | 90%
26 | O=C(O)CCc1cc(-c2ccc(OC(F)(F)F)cc2)ccc1OCc1ccccc1C(F)(F)F [Compound 21] |  | 11% | 70%
27 | O=C(O)CCc1cc(-c2ccc(OC(F)(F)F)cc2)ccc1OCc1ccc(C(F)(F)F)cc1 [Compound 22] |  | 13% | 80%
28 | CC(C)(C)c1ccc(COc2ccc(-c3ccc(OC(F)(F)F)cc3)cc2/C=C/C(=O)O)cc1 [Compound 25] | 96% | 97% | 93%
29 | CC(C)(C)c1ccc(COc2ccc(-c3ccc(C(F)(F)F)cc3)cc2CCC(=O)O)cc1 [Compound 36] | 23% | 60% | 99%
30 | CC(C)(C)c1ccc(COc2c(/C=C/C(=O)O)cccc2-c2ccc(OC(F)(F)F)cc2)cc1 [Compound 87] | 44% | 81% | 96%
31 | COc1cc(-c2ccc(OC(F)(F)F)cc2)cc(CCC(=O)O)c1OCc1ccc(C(C)(C)C)cc1 [Compound 82] | 26% | 59% | 98%
32 | CC(C)(C)c1ccc(COc2cc(/C=C/C(=O)O)cc(Oc3ccc(OC(F)(F)F)cc3)c2)cc1 [Compound 409] | 26% | 59% | 97%
33 | CC(C)(C)c1ccc(CN(C(=O)C(=O)O)c2ccc(N3CCOCC3)c(-c3ccc(OC(F)(F)F)cc3)c2)cc1 [Compound 216] | 75% | 88% | 84%
34 | CC(C)(C)c1ccc(COc2ccc(-c3ccc(C(C)(C)C)cc3)cc2CCC(=O)O)cc1 [Compound 40] | 22% | 66% | >99%
35 | CC(C)(C)c1ccc(N(C(=O)C(=O)O)c2cccc(-c3ccc(OC(F)(F)F)cc3)c2)cc1 [Compound 158] | 26% | 61% | >99%
36 | CC(C)(C)c1ccc(COc2ccc(-c3ccccc3OC(F)(F)F)cc2/C=C/C(=O)O)cc1 [Compound 65] | 42% | 72% | 93%
37 | COc1ccc(CN(C(=O)C(=O)O)c2ccc(-c3ccc(OC(F)(F)F)cc3)cc2)cc1 [Compound 131] |  | 10% | 34%
38 | O=C(O)C(=O)N(c1ccc(-c2ccc(OC(F)(F)F)cc2)cc1)C1CCCCC1 [Compound 253] | 9% | 16% | 36%
39 | O=C(O)CCc1cc(-c2ccc(OC(F)(F)F)cc2)ccc1OCc1cccc(C(F)(F)F)c1 [Compound 58] | 22% | 53% | 97%
40 | CCCOc1ccc(N(CCCc2ccccc2)C(=O)C(=O)O)cc1-c1ccc(OC(F)(F)F)cc1 [Compound 229] | 48% | 80% | 94%
41 | CC(C)(C)c1ccc(CN(C(=O)C(=O)O)c2ccc(Nc3ccc(OC(F)(F)F)cc3)cc2)cc1 [Compound 626] | 42% | 77% | 97%
42 | CC(C)(C)c1ccc(CN(C(=O)C(=O)O)c2ccc(-c3ccc(C#N)cc3)cc2)cc1 [Compound 149] |  | 3% | 34%
43 | CC(C)(C)c1ccc(CN(C(=O)C(=O)O)c2ccccc2Sc2ccc(OC(F)(F)F)cc2)cc1 [Compound 631] | 58% | 86% | 86%
44 | CC(C)(C)c1ccc(COc2ccc(-c3ccc(C(F)(F)F)cc3)cc2/C=C/C(=O)O)cc1 [Compound 35] | 28% | 57% | 95%
